Data on eight compounds can be found in patent publication US20250353891A1 (MEDIMMUNE LIMITED, priority 2022, published 2025).

A word on the EC50: it is the concentration needed to bring the measured effect to its halfway point.

SMILES strings stand for the structures. Starred links: 1 amine or outer side, 2 acyl side, 3 side chain; linkers in the order of their positions; H or OH if unused. Non-standard residues stand in square brackets, D forms with d. Residues, ends and D or L forms follow the SMILES beside them. Groups on a side chain read outwards from the residue. *: point of attachment. C20 diacid = O=C(O)CCCCCCCCCCCCCCCCCCC(=O)*; C18 diacid = O=C(O)CCCCCCCCCCCCCCCCC(=O)*; γGlu = O=C(O)[C@H](CCC(=O)[*:2])N[*:1]; αMeF = C[C@](N)(Cc1ccccc1)C(=O)O; NMeQ = CN[C@@H](CCC(N)=O)C(=O)O; αMeQ = C[C@](N)(CCC(N)=O)C(=O)O; Ac4c = NC1(C(=O)O)CCC1; AEEA = NCCOCCOCC(=O)O; Ac3c = NC1(C(=O)O)CC1; Aib = CC(C)(N)C(=O)O

For assay [1], the target named is human GLP-1 receptor (hGLP-1R) (Homo sapiens, UniProt P43220). The experiment in a line: cAMP production (HTRF) in CHO cells expressing hGLP-1R. The class given is cell-based. The arrangement: expressed in transfected cells. As to conditions: for EC50: Table 7, peptides modified at position 20, cAMP in CHO hGLP-1R cells, geometric mean, read-out: hGLP-1R EC50; for % Relative Potency Ratio: Table 7, % GLP-1R activity relative to GLP-1 / % GlucR activity relative to glucagon. The method in brief: (§1)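 Read-out: HTRF cAMP (anti-cAMP cryptate donor, cAMP-d2 acceptor in conjugate/lysis buffer), converted to % Delta F and fitted by 4-parameter logistic for EC50. Cell densities were 1×10^5 cells/mL (hGLP-1R) or 2×10^5 cells/mL (hGCGR). Stimulation lasted 30 min at room temperature.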
human GLP-1 receptor (hGLP-1R), sequence (P43220 24-463): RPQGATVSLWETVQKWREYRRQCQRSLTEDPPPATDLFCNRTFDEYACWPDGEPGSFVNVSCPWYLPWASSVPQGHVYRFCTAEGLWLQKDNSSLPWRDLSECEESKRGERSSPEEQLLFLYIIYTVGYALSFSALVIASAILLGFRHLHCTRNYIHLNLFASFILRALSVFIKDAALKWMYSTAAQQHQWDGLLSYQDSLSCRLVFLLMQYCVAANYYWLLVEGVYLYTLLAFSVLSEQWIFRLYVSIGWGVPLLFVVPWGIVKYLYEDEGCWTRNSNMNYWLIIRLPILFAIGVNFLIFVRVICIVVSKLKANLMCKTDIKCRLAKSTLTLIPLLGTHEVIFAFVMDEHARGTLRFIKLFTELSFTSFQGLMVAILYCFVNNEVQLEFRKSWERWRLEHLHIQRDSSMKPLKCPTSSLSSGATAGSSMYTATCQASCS

The target of assay [2] is human glucagon receptor (hGCGR) (Homo sapiens, UniProt P47871). The experiment in a line: cAMP production (HTRF) in CHO cells expressing hGCGR. It is filed as cell-based. Also noted: expressed in transfected cells. As to conditions: Table 7, peptides modified at position 20; cAMP in CHO hGCGR cells; geometric mean; read-out: hGluc-R EC50. Put shortly:
as §1
On the technique in general: Changes in cAMP serve as a functional read-out for many G protein-coupled receptors.

human glucagon receptor (hGCGR), sequence (P47871 26-477): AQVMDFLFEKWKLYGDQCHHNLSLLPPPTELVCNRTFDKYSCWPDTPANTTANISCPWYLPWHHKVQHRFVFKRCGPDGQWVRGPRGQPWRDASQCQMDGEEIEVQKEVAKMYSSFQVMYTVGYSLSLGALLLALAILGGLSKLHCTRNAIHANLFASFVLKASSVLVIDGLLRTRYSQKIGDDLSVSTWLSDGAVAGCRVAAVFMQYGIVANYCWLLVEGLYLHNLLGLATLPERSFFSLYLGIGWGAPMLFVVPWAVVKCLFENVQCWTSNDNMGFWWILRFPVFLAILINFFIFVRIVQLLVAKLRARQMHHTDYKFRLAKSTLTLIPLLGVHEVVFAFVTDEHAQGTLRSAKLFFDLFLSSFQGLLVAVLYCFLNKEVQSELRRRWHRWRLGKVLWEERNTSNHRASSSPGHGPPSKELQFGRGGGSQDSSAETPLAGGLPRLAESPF

In the case of `CC[C@H](C)[C@H](NC(=O)C(C)(C)NC(=O)[C@H](CCC(N)=O)NC(=O)[C@@H](NC(=O)[C@](C)(Cc1ccccc1)NC(=O)[C@H](CC(=O)O)NC(=O)[C@H](CCCCNC(=O)COCCOCCNC(=O)COCCOCCNC(=O)CC[C@H](NC(=O)CCCCCCCCCCCCCCCCC(=O)O)C(=O)O)NC(=O)[C@H](C)NC(=O)[C@H](C)NC(=O)[C@H](CCCNC(=N)N)NC(=O)[C@H](CO)NC(=O)[C@H](CC(=O)O)NC(=O)[C@H](CC(C)C)NC(=O)[C@](C)(Cc1ccccc1)NC(=O)[C@H](CCCCN)NC(=O)[C@H](CO)NC(=O)[C@@H](NC(=O)[C@H](CC(=O)O)NC(=O)[C@H](CO)NC(=O)[C@@H](NC(=O)[C@](C)(Cc1ccccc1)NC(=O)[C@H](CO)NC(=O)CNC(=O)[C@H](CCC(N)=O)NC(=O)C(C)(C)NC(=O)[C@@H](N)Cc1c[nH]cn1)[C@@H](C)O)C(C)C)C(C)C)C(=O)N[C@@H](C)C(=O)N[C@@H](CC(N)=O)C(=O)N[C@H](C(N)=O)[C@@H](C)O` [Peptide 321] (H-H[Aib]QGS[αMeF]TSDVSK[αMeF]LDSRAAK([AEEA-AEEA-γGlu-C18 diacid])D[αMeF]VQ[Aib]IANT-NH2), in assay [1], the EC50 is 0.0226 nM and the “% Relative Potency Ratio” value is reported as 384.7. Besides, the concentration giving a half-maximal response (EC50) in assay [2] came to 4.4 nM.
As for `CC[C@H](C)[C@H](NC(=O)C(C)(C)NC(=O)[C@H](CCC(N)=O)NC(=O)[C@@H](NC(=O)[C@](C)(Cc1ccccc1)NC(=O)[C@H](CC(=O)O)NC(=O)[C@H](CCCCNC(=O)COCCOCCNC(=O)COCCOCCNC(=O)CC[C@H](NC(=O)CC[C@H](NC(=O)CCCCCCCCCCCCCCCCCCC(=O)O)C(=O)O)C(=O)O)NC(=O)[C@H](C)NC(=O)[C@H](C)NC(=O)[C@H](CCCNC(=N)N)NC(=O)[C@H](CO)NC(=O)[C@H](CC(=O)O)NC(=O)[C@H](CC(C)C)NC(=O)[C@](C)(Cc1ccccc1)NC(=O)[C@H](CCCCN)NC(=O)[C@H](CO)NC(=O)[C@@H](NC(=O)[C@H](CC(=O)O)NC(=O)[C@H](CO)NC(=O)[C@@H](NC(=O)[C@](C)(Cc1ccccc1)NC(=O)[C@H](CO)NC(=O)CNC(=O)[C@H](CCC(N)=O)NC(=O)C(C)(C)NC(=O)[C@@H](N)Cc1c[nH]cn1)[C@@H](C)O)C(C)C)C(C)C)C(=O)N[C@@H](C)C(=O)N[C@@H](CC(N)=O)C(=O)N[C@H](C(N)=O)[C@@H](C)O` [Peptide 322] (H-H[Aib]QGS[αMeF]TSDVSK[αMeF]LDSRAAK([AEEA-AEEA-γGlu-γGlu-C20 diacid])D[αMeF]VQ[Aib]IANT-NH2), the concentration giving a half-maximal response (EC50) in assay [1] was 0.0683 nM; in assay [2], above 24.7 nM.
For `CC[C@H](C)[C@H](NC(=O)C(C)(C)NC(=O)[C@H](CCC(N)=O)NC(=O)[C@@H](NC(=O)[C@](C)(Cc1ccccc1)NC(=O)[C@H](CC(=O)O)NC(=O)[C@H](CCCCNC(=O)COCCOCCNC(=O)COCCOCCNC(=O)CC[C@H](NC(=O)CCCCCCCCCCCCCCCCC(=O)O)C(=O)O)NC(=O)[C@H](C)NC(=O)[C@H](C)NC(=O)[C@H](CCCNC(=N)N)NC(=O)[C@H](CO)NC(=O)[C@H](CC(=O)O)NC(=O)[C@H](CC(C)C)NC(=O)[C@](C)(Cc1ccccc1)NC(=O)[C@H](CCCCN)NC(=O)[C@H](CO)NC(=O)[C@@H](NC(=O)[C@H](CC(=O)O)NC(=O)[C@H](CO)NC(=O)[C@@H](NC(=O)[C@](C)(Cc1ccccc1)NC(=O)[C@H](CO)NC(=O)CNC(=O)[C@](C)(CCC(N)=O)NC(=O)[C@H](CO)NC(=O)[C@@H](N)Cc1c[nH]cn1)[C@@H](C)O)C(C)C)C(C)C)C(=O)N[C@@H](C)C(=O)N[C@@H](CC(N)=O)C(=O)N[C@H](C(N)=O)[C@@H](C)O` [Peptide 323] (H-HS[αMeQ]GS[αMeF]TSDVSK[αMeF]LDSRAAK([AEEA-AEEA-γGlu-C18 diacid])D[αMeF]VQ[Aib]IANT-NH2), the 50% effective concentration (EC50) was 11.4 nM in assay [1] and above 25.6 nM in assay [2].
Regarding `CC[C@H](C)[C@H](NC(=O)C(C)(C)NC(=O)[C@H](CCC(N)=O)NC(=O)[C@@H](NC(=O)[C@](C)(Cc1ccccc1)NC(=O)[C@H](CC(=O)O)NC(=O)[C@H](CCCCNC(=O)COCCOCCNC(=O)COCCOCCNC(=O)CC[C@H](NC(=O)CCCCCCCCCCCCCCCCC(=O)O)C(=O)O)NC(=O)[C@H](C)NC(=O)[C@H](C)NC(=O)[C@H](CCCNC(=N)N)NC(=O)[C@H](CO)NC(=O)[C@H](CC(=O)O)NC(=O)[C@H](CC(C)C)NC(=O)[C@](C)(Cc1ccccc1)NC(=O)[C@H](CCCCN)NC(=O)[C@H](CO)NC(=O)[C@@H](NC(=O)[C@H](CC(=O)O)NC(=O)[C@H](CO)NC(=O)[C@@H](NC(=O)[C@](C)(Cc1ccccc1)NC(=O)[C@H](CO)NC(=O)CNC(=O)[C@H](CCC(N)=O)N(C)C(=O)[C@H](CO)NC(=O)[C@@H](N)Cc1c[nH]cn1)[C@@H](C)O)C(C)C)C(C)C)C(=O)N[C@@H](C)C(=O)N[C@@H](CC(N)=O)C(=O)N[C@H](C(N)=O)[C@@H](C)O` [Peptide 325] (H-HS[NMeQ]GS[αMeF]TSDVSK[αMeF]LDSRAAK([AEEA-AEEA-γGlu-C18 diacid])D[αMeF]VQ[Aib]IANT-NH2), the values for the EC50 in assay [1] and in assay [2] were 0.929 nM and above 25.5 nM, respectively.
Regarding `CC[C@H](C)[C@H](NC(=O)C(C)(C)NC(=O)[C@H](CCC(N)=O)NC(=O)[C@@H](NC(=O)[C@](C)(Cc1ccccc1)NC(=O)[C@H](CC(=O)O)NC(=O)[C@H](CCCCNC(=O)COCCOCCNC(=O)COCCOCCNC(=O)CC[C@H](NC(=O)CCCCCCCCCCCCCCCCC(=O)O)C(=O)O)NC(=O)[C@H](C)NC(=O)[C@H](C)NC(=O)[C@H](CCCNC(=N)N)NC(=O)[C@H](CO)NC(=O)[C@H](CC(=O)O)NC(=O)[C@H](CC(C)C)NC(=O)[C@](C)(Cc1ccccc1)NC(=O)[C@H](CCCCN)NC(=O)[C@H](CO)NC(=O)[C@@H](NC(=O)[C@H](CC(=O)O)NC(=O)[C@H](CO)NC(=O)[C@@H](NC(=O)[C@](C)(Cc1ccccc1)NC(=O)[C@H](CO)NC(=O)CNC(=O)[C@@H](CCC(N)=O)NC(=O)[C@H](CO)NC(=O)[C@@H](N)Cc1c[nH]cn1)[C@@H](C)O)C(C)C)C(C)C)C(=O)N[C@@H](C)C(=O)N[C@@H](CC(N)=O)C(=O)N[C@H](C(N)=O)[C@@H](C)O` [Peptide 326] (H-HS[dQ]GS[αMeF]TSDVSK[αMeF]LDSRAAK([AEEA-AEEA-γGlu-C18 diacid])D[αMeF]VQ[Aib]IANT-NH2), the EC50 is 6.74 nM in assay [1] and above 25.6 nM in assay [2].
Take `CC[C@H](C)[C@H](NC(=O)C(C)(C)NC(=O)[C@H](CCC(N)=O)NC(=O)[C@@H](NC(=O)[C@](C)(Cc1ccccc1)NC(=O)[C@H](CC(=O)O)NC(=O)[C@H](CCCCNC(=O)COCCOCCNC(=O)COCCOCCNC(=O)CC[C@H](NC(=O)CCCCCCCCCCCCCCCCC(=O)O)C(=O)O)NC(=O)[C@H](C)NC(=O)[C@H](C)NC(=O)[C@H](CCCNC(=N)N)NC(=O)[C@H](CO)NC(=O)[C@H](CC(=O)O)NC(=O)[C@H](CC(C)C)NC(=O)[C@](C)(Cc1ccccc1)NC(=O)[C@H](CCCCN)NC(=O)[C@H](CO)NC(=O)[C@@H](NC(=O)[C@H](CC(=O)O)NC(=O)[C@H](CO)NC(=O)[C@@H](NC(=O)[C@](C)(Cc1ccccc1)NC(=O)[C@H](CO)NC(=O)CNC(=O)[C@H](CCC(N)=O)NC(=O)C1(NC(=O)[C@@H](N)Cc2c[nH]cn2)CC1)[C@@H](C)O)C(C)C)C(C)C)C(=O)N[C@@H](C)C(=O)N[C@@H](CC(N)=O)C(=O)N[C@H](C(N)=O)[C@@H](C)O` [Peptide 327] (H-H[Ac3c]QGS[αMeF]TSDVSK[αMeF]LDSRAAK([AEEA-AEEA-γGlu-C18 diacid])D[αMeF]VQ[Aib]IANT-NH2): the values for the EC50 in assay [1] and in assay [2] were 0.0301 nM and above 25.7 nM, respectively.
For `CC[C@H](C)[C@H](NC(=O)C(C)(C)NC(=O)[C@H](CCC(N)=O)NC(=O)[C@@H](NC(=O)[C@](C)(Cc1ccccc1)NC(=O)[C@H](CC(=O)O)NC(=O)[C@H](CCCCNC(=O)COCCOCCNC(=O)COCCOCCNC(=O)CC[C@H](NC(=O)CCCCCCCCCCCCCCCCC(=O)O)C(=O)O)NC(=O)[C@H](C)NC(=O)[C@H](C)NC(=O)[C@H](CCCNC(=N)N)NC(=O)[C@H](CO)NC(=O)[C@H](CC(=O)O)NC(=O)[C@H](CC(C)C)NC(=O)[C@](C)(Cc1ccccc1)NC(=O)[C@H](CCCCN)NC(=O)[C@H](CO)NC(=O)[C@@H](NC(=O)[C@H](CC(=O)O)NC(=O)[C@H](CO)NC(=O)[C@@H](NC(=O)[C@](C)(Cc1ccccc1)NC(=O)[C@H](CO)NC(=O)CNC(=O)[C@H](CCC(N)=O)NC(=O)C1(NC(=O)[C@@H](N)Cc2c[nH]cn2)CCC1)[C@@H](C)O)C(C)C)C(C)C)C(=O)N[C@@H](C)C(=O)N[C@@H](CC(N)=O)C(=O)N[C@H](C(N)=O)[C@@H](C)O` [Peptide 328] (H-H[Ac4c]QGS[αMeF]TSDVSK[αMeF]LDSRAAK([AEEA-AEEA-γGlu-C18 diacid])D[αMeF]VQ[Aib]IANT-NH2; N-terminus assumed), in assay [1], the half-maximal effective concentration (EC50) was 0.0154 nM and the “% Relative Potency Ratio” value is on record as 218.8. Moreover, in assay [2], the EC50 was determined as 1.7 nM.
On to `CC[C@H](C)[C@H](NC(=O)C(C)(C)NC(=O)[C@H](CCC(N)=O)NC(=O)[C@@H](NC(=O)[C@](C)(Cc1ccccc1)NC(=O)[C@H](CC(=O)O)NC(=O)[C@H](CCCCNC(=O)COCCOCCNC(=O)COCCOCCNC(=O)CC[C@H](NC(=O)CCCCCCCCCCCCCCCCC(=O)O)C(=O)O)NC(=O)[C@H](C)NC(=O)[C@H](C)NC(=O)[C@H](CCCNC(=N)N)NC(=O)[C@H](CO)NC(=O)[C@H](CC(=O)O)NC(=O)[C@H](CC(C)C)NC(=O)[C@](C)(Cc1ccccc1)NC(=O)[C@H](CCCCN)NC(=O)[C@H](CO)NC(=O)[C@@H](NC(=O)[C@H](CC(=O)O)NC(=O)[C@H](CO)NC(=O)[C@@H](NC(=O)[C@](C)(Cc1ccccc1)NC(=O)[C@H](CO)NC(=O)CNC(=O)[C@H](CCC(N)=O)NC(=O)[C@@H](CO)NC(=O)[C@@H](N)Cc1c[nH]cn1)[C@@H](C)O)C(C)C)C(C)C)C(=O)N[C@@H](C)C(=O)N[C@@H](CC(N)=O)C(=O)N[C@H](C(N)=O)[C@@H](C)O` [Peptide 330] (H-H[dS]QGS[αMeF]TSDVSK[αMeF]LDSRAAK([AEEA-AEEA-γGlu-C18 diacid])D[αMeF]VQ[Aib]IANT-NH2), for which the EC50 in assay [1] was 0.488 nM; in assay [2] it was above 25.6 nM.
